Experimental data: patent US20240368278A1, “GENERATION AND CHARACTERIZATION OF NOVEL TIM-4 BINDING AGENTS” (Heat Biologics, Inc., priority 2021, published 2024)
Entries after “also recorded” stand apart in the source; their conditions may differ.

Experiments:
THP-1 cells [1] = assay: Phagocytosis assay in THP-1 cells with phosphatidylserine lipid microparticles; assay type: cell-based; conditions: for inhibition of phagocytosis (RFU): phosphatidylserine lipid microparticles, peptides at 100 μg/mL, 3 h under serum starvation, vs untreated control
From the text: FIG. 2A, FIG. 2B, and FIG. 2C show an image of the THP-1 experimental workflow, an image of THP-1 cells undergoing phagocytosis, and a graph showing data from the phagocytosis experiment. FIG. 2A is an image of the experimental workflow. FIG. 2B is a graph showing data from the peptides derived from the CDR3 regions of antibodies tested in the phagocytosis assay. In FIG. 2B, along the x-axis, “156-1G” refers to SEQ ID NO: 7, “156-IH” refers to SEQ ID NO: 11, “156-2B” refers to SEQ ID NO: 3, and “156-2F” refers to SEQ ID NO: 15. In this assay, cells were treated with the indicated treatments, and cytochalasin D (20 μM) was used as a control to show phagocytosis failure. CDR3 regions from antibodies that bound to Tim-4 were synthesized as peptides, and subsequently tested. The data shown in FIG. 2B represents peptides tested at 100 μg/mL. Statistics were performed using a one-way ANOVA followed by a multiple comparison test comparing each treatment to “untreated” control (p>0.05=*, ns=not significant). […] Phosphatidylserine (“PS”) lipid microparticles are shown and superimposed onto brightfield images of THP-1 cells. […] Scale bar represents 150 μm.
Phagocytosis assays using the developed peptides derived from the CDR3 regions of antibodies (e.g., SEQ ID NO: 35, SEQ ID NO: 36, SEQ ID NO: 37, and SEQ ID NO: 38) and THP-1 cells were completed by following the experimental outline shown in FIG. 2A. In these experiments, 1×10^5 cells were seeded on a 96 well plate, and the synthesized peptides (e.g., SEQ ID NO: 35, SEQ ID NO: 36, SEQ ID NO: 37, and SEQ ID NO: 38) were then added onto the plate for three hours under serum starvation. Phosphatidylserine lipid microparticles were then added in media containing 10% FBS. Cells were then washed 3 to 5 times with PBS, and the level of fluorescence (e.g., relative fluorescence units, “RFU”) was then analyzed with a plate reader. In these experiments, cytochalasin D (20 μM) was used as a control to show phagocytosis failure. […]

Tim4-Hek293-FT cells = assay: Phagocytosis assay in Tim4-Hek293-FT cell line; assay type: cell-based; conditions: for inhibition of phagocytosis (RFU): Tim4-Hek293-FT cells, 96 well plate, vs untreated control
Procedure: Stable Tim-4 expression was confirmed by RT-PCR using primers against Tim-4 mRNA and Gapdh mRNA (control). […] Scale bar represents 300 μm.
In FIG. 5A, the Tim4-Hek293-FT cells were plated in a 96 well plate, followed by the phagocytosis assay. Statistical analysis was performed using a t-test (p>0.05=*). Relative fluorescence units (“RFU”) were normalized to fluorescent intensity at hour zero. In FIG. 5B, Tim4-Hek293-FT cells were fixed and immunolabeled against Tim-4 and counterstained with DAPI. […] Arrows indicate phosphatidylserine bead. Scale bar represents 75 μm.
In FIG. 7A, cells were plated on a 96 well plate and treatments were performed similar to FIG. 2A. Statistics were performed using a one-way ANOVA followed by a multiple comparison test comparing each treatment to the “untreated” control (p>0.05=*, p>0.01=**, p>0.001=***). […] In FIG. 7A, “116-117 1A” is SEQ ID NO: 30 ([…]), “116-117 2C” is SEQ ID NO: 23 ([…]), “116-117 2D” is SEQ ID NO: 24 ([…]), “116-117 2F” is SEQ ID NO: 25 ([…]), “116-117 3B” is SEQ ID NO: 26 ([…]), “116-117 3C” is SEQ ID NO: 27 ([…]), “116-117 3E” is SEQ ID NO: 17 ([…]), “116-117 3F” is SEQ ID NO: 28 ([…]), “116-117 4A” is SEQ ID NO: 22 ([…]), and “116-117 4G” is SEQ ID NO: 29 ([…]). […] Scale bar represents 150 μm.
To further validate the function of the synthesized peptides, a Tim4-Hek293-FT cell line was developed (FIG. 4A).
A phagocytosis assay, as previously described above and following the experimental outline of FIG. 2A, was performed in the Tim4-Hek293-FT cells. In these experiments, cytochalasin D (20 μM) was used as a control to show phagocytosis failure. […] The inhibition of phagocytosis by SEQ ID NO: 17 is also shown in the immunofluorescence images of FIG. 7B.

THP-1 cells [2] = assay: Phagocytosis assay in THP-1 cells with carboxylate beads; assay type: cell-based; conditions: 96 well plate, vs untreated control
Procedure: FIG. 3A and FIG. 3B are graphs showing dose response curves of the phagocytosis assay in THP-1 cells using both PS beads and carboxylate beads.
In FIG. 8A, cells were plated on a 96 well plate and treatments were performed with carboxylate beads. Statistics were performed using a one-way ANOVA followed by a multiple comparison test comparing each treatment to the “untreated” control (p>0.05=*, p>0.01=**, p>0.001=***, p>0.0001=****). FIG. 8B are representative images of the phagocytosis assay. […] Scale bare represents 150 μm. […] Scale bar represents 150 μm. FIG. 8D is a graph of a dose response curve.
(§1) To further validate the function of the synthesized peptide, SEQ ID NO: 17, a phagocytosis assay using SEQ ID NO: 17 in THP-1 cells (FIG. 8A, FIG. 8B, FIG. 8C, and FIG. 8D), and in RAW 264.7 cells (FIG. 9A and FIG. 9B), was performed. […] A dose response curve for SEQ ID NO: 17 in THP-1 cells was generated (FIG. 8D). […] A dose response curve for SEQ ID NO: 17 in RAW 264.7 cells was generated (FIG. 9B).

RAW 264.7 cells = assay: RAW phagocytosis assay with carboxylate beads; assay type: cell-based, mouse; conditions: across a range of doses
Procedure: In FIG. 9A, cells were plated on a 96 well plate and treatments were performed with carboxylate beads. Statistics were performed using a one-way ANOVA, followed by a multiple comparison test comparing each treatment to the “untreated” control (p>0.05=*, p>0.01=**, p>0.001=***, p>0.0001=****). In FIG. 9B, a dose response curve of a RAW phagocytosis assay was performed using mouse macrophages RAW cells with cytochalasin D as a control, and graphed in log scale.
as §1

THP-1 cells [3] = assay: Autophagy assay (autophagosome formation) in THP-1 cells; assay type: cell-based; conditions: labeled autophagosomes, Hoechst nuclear stain
From the text: In FIG. 11B, autophagosomes are labeled and Hoechst stain is used for nuclear staining.

Tim-4 = molecular target: T1, Tim-4 (Homo sapiens, UniProt Q96H15); assay: Binding to Tim-4 (identification of binders)
T1 sequence (Q96H15 25-378): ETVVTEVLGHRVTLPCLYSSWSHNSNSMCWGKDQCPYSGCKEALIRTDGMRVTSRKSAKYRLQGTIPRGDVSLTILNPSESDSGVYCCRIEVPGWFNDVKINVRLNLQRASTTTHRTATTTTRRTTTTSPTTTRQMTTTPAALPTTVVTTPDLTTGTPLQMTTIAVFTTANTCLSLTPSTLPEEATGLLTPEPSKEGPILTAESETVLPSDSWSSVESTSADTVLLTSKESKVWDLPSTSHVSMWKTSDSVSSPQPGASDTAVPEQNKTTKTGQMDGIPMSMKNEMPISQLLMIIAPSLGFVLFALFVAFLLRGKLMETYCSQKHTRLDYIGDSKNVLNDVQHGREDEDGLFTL

binding to Tim-4 (Tim-4) | Sequence | inhibition of phagocytosis (RFU) (THP-1 cells [1]) | inhibition of phagocytosis (RFU) (Tim4-Hek293-FT cells) | inhibition of phagocytosis with phosphatidylserine lipid microparticles compared to carboxylate beads (dose response curves) (THP-1 cells [1]) | inhibition of phagocytosis (THP-1 cells [2]) | inhibition of phagocytosis (THP-1 cells [2]; listed as 116-117 3E) | phagocytosis of the phosphatidylserine bead (immunofluorescence image) (Tim4-Hek293-FT cells; Tim4-Hek293-FT cells fixed, immunolabeled against Tim-4, DAPI) | inhibition of phagocytosis (RFU) (Tim4-Hek293-FT cells; listed as 116-117 3E) | inhibition of phagocytosis (RAW 264.7 cells) | autophagosome formation (THP-1 cells [3])
– | KVAVMTMAEANRRGTYSS [SEQ ID NO: 3] | significantly inhibited phagocytosis | inhibit phagocytosis; also recorded: limit phagocytosis | – | – | – | – | – | – | –
– | QTLAFAYNDSDWFEVYKG [156-1G] | significantly inhibited phagocytosis | – | – | – | – | – | – | – | –
bound to Tim4 | QCYANHMYCNDSIAVYHFQM [SEQ ID NO: 17] | – | inhibited phagocytosis | greater inhibition | inhibited phagocytosis | inhibits phagocytosis | reduced ability of phagocytosis | inhibits phagocytosis | inhibited phagocytosis | reduces autophagosome formation
